Data from ChEMBL document CHEMBL1201862, “PubChem BioAssay data set” (2004).
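All cell lines were grown in 96-well plates and treated with compound for 48 hours. GI50 is the concentration that inhibits growth by half.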 Active and inactive are the calls of the source. Rule as the data show it: active = GI50 up to about 1.1 µM and inactive = higher.

Tests used:
Test in all cases: inhibition of tumour cell growth, NCI panel, 48 h
T47D = test system: T47D
CCRF-CEM = test system: CCRF-CEM
CAKI-1 = test system: CAKI-1
NCI-H460 = test system: NCI-H460
EKVX = test system: EKVX
SN12C = test system: SN12C
HOP-62 = test system: HOP-62
PC-3 = test system: PC-3
A498 = test system: A498
MDA-MB-231 = test system: MDA-MB-231
IGROV-1 = test system: IGROV-1
MDA-MB-435 = test system: MDA-MB-435
SK-MEL-28 = test system: SK-MEL-28
UO-31 = test system: UO-31
M14 = test system: M14
RXF 393 = test system: RXF 393
SR = test system: SR
SK-MEL-2 = test system: SK-MEL-2
OVCAR-3 = test system: OVCAR-3
SF-295 = test system: SF-295
SNB-19 = test system: SNB-19
K562 = test system: K562
Hs-578T = test system: Hs-578T
SF-268 = test system: SF-268
UACC-257 = test system: UACC-257
786-0 = test system: 786-0
SW-620 = test system: SW-620
HCC 2998 = test system: HCC 2998
NCI-H226 = test system: NCI-H226
NCI-H522 = test system: NCI-H522
UACC-62 = test system: UACC-62
HT-29 = test system: HT-29
NCI/ADR-RES = test system: NCI/ADR-RES
OVCAR-5 = test system: OVCAR-5
DU-145 = test system: DU-145
HCT-116 = test system: HCT-116
TK-10 = test system: TK-10
HCT-15 = test system: HCT-15
SK-MEL-5 = test system: SK-MEL-5
BT-549 = test system: BT-549
LOX IMVI = test system: LOX IMVI
SNB-75 = test system: SNB-75
OVCAR-8 = test system: OVCAR-8
HOP-92 = test system: HOP-92
U-251 = test system: U-251
OVCAR-4 = test system: OVCAR-4
Malme-3M = test system: Malme-3M
MDA-N = test system: MDA-N
ACHN = test system: ACHN
KM12 = test system: KM12
MOLT-4 = test system: MOLT-4
NCI-H23 = test system: NCI-H23
A549 = test system: A549
SF-539 = test system: SF-539
HL-60 = test system: HL-60
SK-OV-3 = test system: SK-OV-3
MCF7 = test system: MCF7
COLO 205 = test system: COLO 205
RPMI-8226 = test system: RPMI-8226

With `NCCSCc1ccccc1Cl` the GI50 (T47D) was 42.4 µM (inactive), the GI50 (CCRF-CEM) was 25.2 µM (inactive) and the GI50 (CAKI-1) was > 100 µM (inactive). For the same compound, the GI50 (NCI-H460) was 31.3 µM (inactive), the GI50 (EKVX) was 34.3 µM (inactive) and the GI50 (SN12C) was 43.4 µM (inactive). The GI50 (HOP-62) was 40.6 µM (inactive), the GI50 (PC-3) was 30.3 µM (inactive) and the GI50 (A498) was 27 µM (inactive). The GI50 (MDA-MB-231) was 45.6 µM (inactive), the GI50 (IGROV-1) was 51.4 µM (inactive) and the GI50 (MDA-MB-435) was 36 µM (inactive). For the same compound, the GI50 (SK-MEL-28) was 64.6 µM (inactive), the GI50 (UO-31) was > 100 µM (inactive) and the GI50 (M14) was 63.4 µM (inactive). The GI50 (RXF 393) was 83.8 µM (inactive), the GI50 (SR) was 18.6 µM (inactive) and the GI50 (SK-MEL-2) was 30.6 µM (inactive). For the same compound, the GI50 (OVCAR-3) was 28.9 µM (inactive), the GI50 (SF-295) was 41.1 µM (inactive) and the GI50 (SNB-19) was 80.4 µM (inactive). For the same compound, the GI50 (K562) was 26.9 µM (inactive), the GI50 (Hs-578T) was 73.5 µM (inactive) and the GI50 (SF-268) was 95.7 µM (inactive). For the same compound, the GI50 (UACC-257) was 23.3 µM (inactive), the GI50 (786-0) was 42.7 µM (inactive) and the GI50 (SW-620) was 33.4 µM (inactive). For the same compound, the GI50 (HCC 2998) was 18.6 µM (inactive), the GI50 (NCI-H226) was > 100 µM (inactive) and the GI50 (NCI-H522) was 48.2 µM (inactive). For the same compound, the GI50 (UACC-62) was 53.6 µM (inactive), the GI50 (HT-29) was 36.1 µM (inactive) and the GI50 (NCI/ADR-RES) was > 100 µM (inactive). For the same compound, the GI50 (OVCAR-5) was > 100 µM (inactive), the GI50 (DU-145) was 43 µM (inactive) and the GI50 (HCT-116) was 46.9 µM (inactive). For the same compound, the GI50 (TK-10) was 26.4 µM (inactive), the GI50 (HCT-15) was > 100 µM and the GI50 (SK-MEL-5) was 63 µM (inactive). For the same compound, the GI50 (BT-549) was 69.7 µM (inactive), the GI50 (LOX IMVI) was 25.7 µM (inactive) and the GI50 (SNB-75) was 37.5 µM (inactive). For the same compound, the GI50 (OVCAR-8) was 43.3 µM (inactive), the GI50 (HOP-92) was 68.2 µM (inactive) and the GI50 (U-251) was 31.6 µM (inactive). The GI50 (OVCAR-4) was 64.9 µM (inactive), the GI50 (Malme-3M) was 65.8 µM (inactive) and the GI50 (MDA-N) was 30.5 µM (inactive). For the same compound, the GI50 (ACHN) was > 100 µM (inactive), the GI50 (KM12) was 47.3 µM (inactive) and the GI50 (MOLT-4) was 31 µM (inactive). For the same compound, the GI50 (NCI-H23) was 30.1 µM (inactive) and the GI50 (A549) was > 100 µM (inactive).

`O=C1NCc2ccccc2S(=O)(=O)n2cccc21` was tested, and the GI50 (T47D) was 50.7 µM (inactive), the GI50 (CCRF-CEM) was > 100 µM (inactive) and the GI50 (CAKI-1) was > 100 µM (inactive). For the same compound, the GI50 (NCI-H460) was > 100 µM (inactive), the GI50 (EKVX) was > 100 µM (inactive) and the GI50 (SF-539) was > 100 µM (inactive). For the same compound, the GI50 (SN12C) was > 100 µM (inactive), the GI50 (HOP-62) was > 100 µM (inactive) and the GI50 (HL-60) was > 100 µM (inactive). For the same compound, the GI50 (PC-3) was > 100 µM (inactive), the GI50 (MDA-MB-231) was > 100 µM (inactive) and the GI50 (IGROV-1) was > 100 µM (inactive). For the same compound, the GI50 (MDA-MB-435) was > 100 µM (inactive), the GI50 (SK-MEL-28) was > 100 µM (inactive) and the GI50 (UO-31) was > 100 µM (inactive). For the same compound, the GI50 (M14) was > 100 µM (inactive), the GI50 (SR) was 6.28 µM (inactive) and the GI50 (SK-MEL-2) was 64.4 µM (inactive). For the same compound, the GI50 (OVCAR-3) was > 100 µM (inactive), the GI50 (SF-295) was > 100 µM (inactive) and the GI50 (SNB-19) was > 100 µM (inactive). For the same compound, the GI50 (SK-OV-3) was > 100 µM (inactive), the GI50 (Hs-578T) was > 100 µM (inactive) and the GI50 (SF-268) was > 100 µM (inactive). The GI50 (UACC-257) was > 100 µM (inactive), the GI50 (786-0) was > 100 µM (inactive) and the GI50 (SW-620) was > 100 µM (inactive). The GI50 (HCC 2998) was > 100 µM (inactive), the GI50 (NCI-H226) was > 100 µM (inactive) and the GI50 (NCI-H522) was 85.7 µM (inactive). The GI50 (UACC-62) was > 100 µM (inactive), the GI50 (HT-29) was > 100 µM (inactive) and the GI50 (NCI/ADR-RES) was > 100 µM (inactive). The GI50 (OVCAR-5) was > 100 µM (inactive), the GI50 (DU-145) was > 100 µM (inactive) and the GI50 (HCT-116) was 63.1 µM (inactive). For the same compound, the GI50 (TK-10) was > 100 µM (inactive), the GI50 (HCT-15) was > 100 µM and the GI50 (SK-MEL-5) was > 100 µM (inactive). For the same compound, the GI50 (BT-549) was > 100 µM (inactive), the GI50 (LOX IMVI) was > 100 µM (inactive) and the GI50 (SNB-75) was > 100 µM (inactive). For the same compound, the GI50 (OVCAR-8) was > 100 µM (inactive), the GI50 (U-251) was > 100 µM (inactive) and the GI50 (MCF7) was > 100 µM (inactive). For the same compound, the GI50 (OVCAR-4) was > 100 µM (inactive), the GI50 (Malme-3M) was > 100 µM (inactive) and the GI50 (MDA-N) was > 100 µM (inactive). For the same compound, the GI50 (ACHN) was > 100 µM (inactive), the GI50 (KM12) was > 100 µM (inactive) and the GI50 (MOLT-4) was > 100 µM (inactive). The GI50 (COLO 205) was > 100 µM (inactive), the GI50 (NCI-H23) was > 100 µM (inactive) and the GI50 (A549) was > 100 µM (inactive). For the same compound, the GI50 (RPMI-8226) was > 100 µM (inactive).
